In patent US7452997B2 (priority 2004, dated 2008):

Legend:
human CB1 receptor = target: T1, human CB1 receptor (Homo sapiens, UniProt P21554); assay: biochemical; type: binding
T1 construct: expressed in transfected cells; host or cells: SK-N-MC cells, stably transfected with pcDNA3 CB-1 (human); semi-purified membrane pellet
Method in brief: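 Membranes from SK-N-MC cells stably expressing human CB1, incubated 90 minutes at 30° C in Tris-HCl buffer with MgCl2, EDTA and fatty acid free BSA, pH 7.5. Bound counts collected by filtration and scintillation counting; IC50 from linear regression over varying compound concentrations.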

human CB2 receptor = human CB2 receptor (Homo sapiens, UniProt P34972); assay: Binding assay, cannabinoid CB2 receptor ([3H]-CP-55,940 displacement); conditions: Cannabinoid CB2 Receptor Binding IC50, human CB2 receptor, SK-N-MC cell membranes, radioligand CP-55,940 0.2 nM
Method in brief: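 Membranes from SK-N-MC cells stably expressing human CB2, incubated with test compound and 0.2 nM [3H]-CP-55,940 for 90 min at 30 °C in Tris buffer pH 7.5 with fatty-acid-free BSA. Nonspecific binding defined with 10 uM WIN 55,212; filtration and scintillation counting, IC50 by linear regression.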

human CB2 receptor, sequence (P34972 whole entry): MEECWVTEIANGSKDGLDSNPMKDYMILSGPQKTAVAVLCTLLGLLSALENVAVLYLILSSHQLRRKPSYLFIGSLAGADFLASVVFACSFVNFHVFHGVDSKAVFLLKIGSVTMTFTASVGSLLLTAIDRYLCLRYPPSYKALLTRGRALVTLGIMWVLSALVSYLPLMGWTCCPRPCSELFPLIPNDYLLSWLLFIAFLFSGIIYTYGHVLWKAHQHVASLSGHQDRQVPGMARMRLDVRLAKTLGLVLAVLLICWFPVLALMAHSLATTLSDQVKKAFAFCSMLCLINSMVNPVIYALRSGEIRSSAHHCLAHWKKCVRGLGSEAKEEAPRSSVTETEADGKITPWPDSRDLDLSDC
T1 sequence (P21554 whole entry): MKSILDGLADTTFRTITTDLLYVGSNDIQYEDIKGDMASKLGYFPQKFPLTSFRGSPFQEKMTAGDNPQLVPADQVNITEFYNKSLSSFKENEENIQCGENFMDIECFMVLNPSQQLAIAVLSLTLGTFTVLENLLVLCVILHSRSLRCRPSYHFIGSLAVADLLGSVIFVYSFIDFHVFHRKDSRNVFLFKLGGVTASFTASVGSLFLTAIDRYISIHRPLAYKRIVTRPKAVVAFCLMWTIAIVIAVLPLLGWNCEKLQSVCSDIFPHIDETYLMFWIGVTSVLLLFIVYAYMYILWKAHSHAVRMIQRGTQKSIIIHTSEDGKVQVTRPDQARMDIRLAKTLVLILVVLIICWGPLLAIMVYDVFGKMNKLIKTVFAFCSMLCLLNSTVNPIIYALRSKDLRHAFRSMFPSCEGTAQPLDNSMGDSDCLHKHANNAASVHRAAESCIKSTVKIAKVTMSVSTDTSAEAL

CC(NC(=O)c1nn(C2CCCCC2)c2c1CC(=O)CC2)C12CC3CC(CC(C3)C1)C2 (stereo not shown) [compound 97]
IC50 (human CB1 receptor): 9700 nM
IC50 (human CB2 receptor): 30 nM

CC(C)(C)C1CCc2c(c(C(=O)NC3C4(C)CCC(C4)C3(C)C)nn2C2CCCCC2)C1 (stereo not shown) [compound 99]
IC50 (human CB1 receptor): 960 nM
IC50 (human CB2 receptor): 250 nM

CS(=O)(=O)NC1CCc2c(c(C(=O)NC3C4CC5CC(C4)CC3C5)nn2C2CCCCC2)C1 (stereo not shown) [compound 104]
IC50 (human CB1 receptor): 17100 nM
IC50 (human CB2 receptor): 200 nM

CCOC[C@H]1C2CCC(C2)[C@H]1NC(=O)c1nn(C2CCCCC2)c2c1CCCC2 (stereo partly shown) [compound 107]
IC50 (human CB1 receptor): 910 nM
IC50 (human CB2 receptor): 1400 nM

CCOC(=O)C1CC=CCC1NC(=O)c1nn(Cc2ccccc2)c2c1CCCC2 (stereo not shown) [compound 119]
IC50 (human CB1 receptor): 6 nM
IC50 (human CB2 receptor): 10 nM

CCOC(=O)C1CC=CCC1NC(=O)c1nn(C2CCCCC2)c2c1CCCC2OC (stereo not shown) [compound 120]
IC50 (human CB1 receptor): 2460 nM
IC50 (human CB2 receptor): 875 nM

CCOC(=O)[C@H]1C2CCC(C2)[C@H]1NC(=O)c1nn(CC2CCCCC2)c2c1CCCC2 (stereo partly shown) [compound 124]
IC50 (human CB1 receptor): 7 nM
IC50 (human CB2 receptor): 16 nM

Cc1ccc(Cn2nc(C(=O)NC3C4(C)CCC(C4)C3(C)C)c3c2CCCC3)cc1 (stereo not shown) [compound 125]
IC50 (human CB1 receptor): 26 nM
IC50 (human CB2 receptor): 2.2 nM

CCOC(=O)C1C2CCC(C2)C1NC(=O)c1nn(Cc2ccc(C)cc2)c2c1CCCC2 (stereo not shown) [compound 126]
IC50 (human CB1 receptor): 597 nM
IC50 (human CB2 receptor): 593 nM

O=C(NC1CCCCCCC1)c1nn(Cc2ccccc2)c2c1CCCC2 [compound 127]
IC50 (human CB1 receptor): 9.9 nM
IC50 (human CB2 receptor): 3.9 nM

CC12CCC(C1)C(C)(C)C2NC(=O)c1nn(-c2ccc(Cl)cc2Cl)c2c1CCCC2 (stereo not shown) [compound 129]
IC50 (human CB1 receptor): 5.7 nM
IC50 (human CB2 receptor): 1.7 nM

CCOC(=O)[C@H]1C2CCC(C2)[C@H]1NC(=O)c1nn(-c2ccc(Cl)cc2Cl)c2c1CCCC2 (stereo partly shown) [compound 130]
IC50 (human CB1 receptor): 400 nM
IC50 (human CB2 receptor): 5 nM

O=C(NC1C2CC3CC(C2)CC1C3)c1nn(-c2ccc(Cl)cc2Cl)c2c1CCCC2 (stereo not shown) [compound 131]
IC50 (human CB1 receptor): 30 nM
IC50 (human CB2 receptor): 10 nM

CC(NC(=O)c1nn(C2CCCCC2)c2c1CC(C(=O)O)CC2)C12CC3CC(CC(C3)C1)C2 (stereo not shown) [compound 133]
IC50 (human CB1 receptor): 12000 nM
IC50 (human CB2 receptor): 1340 nM

O=C(NCC12CC3CC(CC(C3)C1)C2)c1nn(Cc2ccccc2)c2c1CCCC2 [compound 135]
IC50 (human CB1 receptor): 670 nM
IC50 (human CB2 receptor): 20 nM

O=C(NC1C2CC3CC(C2)CC1C3)c1nn(Cc2ccccc2)c2c1CCCC2 (stereo not shown) [compound 136]
IC50 (human CB1 receptor): 0.8 nM
IC50 (human CB2 receptor): 0.5 nM

CCOC(=O)C1CCc2c(c(C(=O)NC3C4CCC(C4)C3C(=O)OCC)nn2C2CCCCC2)C1 (stereo not shown) [compound 137]
IC50 (human CB1 receptor): 3950 nM
IC50 (human CB2 receptor): 1550 nM

O=C(NC12CC3CC(CC(C3)C1)C2)c1nn(-c2ccc(Cl)cc2Cl)c2c1CCCC2 [compound 139]
IC50 (human CB1 receptor): 160 nM
IC50 (human CB2 receptor): 300 nM

O=C(NC12CC3CC(CC(C3)C1)C2)c1c2c(nn1-c1ccc(Cl)cc1Cl)CCCC2 [compound 140]
IC50 (human CB1 receptor): 890 nM
IC50 (human CB2 receptor): 3400 nM

O=C(NCC12CC3CC(CC(C3)C1)C2)c1nn(-c2ccc(Cl)cc2Cl)c2c1CCCC2 [compound 141]
IC50 (human CB1 receptor): 300 nM
IC50 (human CB2 receptor): 140 nM

O=C(NCC12CC3CC(CC(C3)C1)C2)c1c2c(nn1-c1ccc(Cl)cc1Cl)CCCC2 [compound 142]
IC50 (human CB1 receptor): 600 nM
IC50 (human CB2 receptor): 400 nM

O=C(NCC12CC3CC(CC(C3)C1)C2)c1nn(-c2ccc(F)cc2)c2c1CCCC2c1ccccc1 (stereo not shown) [compound 145]
IC50 (human CB1 receptor): 950 nM
IC50 (human CB2 receptor): 1100 nM

CCOC(=O)C1CCc2c(c(C(=O)NC(C)C34CC5CC(CC(C5)C3)C4)nn2Cc2ccccc2)C1 (stereo not shown) [compound 148]
IC50 (human CB1 receptor): 13 nM
IC50 (human CB2 receptor): 30 nM

O=C(NC12CC3CC(CC(C3)C1)C2)c1nn(-c2ccc(F)cc2)c2c1CCCC2CCc1ccccc1 (stereo not shown) [compound 150]
IC50 (human CB1 receptor): 130 nM
IC50 (human CB2 receptor): 40 nM

O=C(NCC12CC3CC(CC(C3)C1)C2)c1nn(-c2ccc(F)cc2)c2c1CCCC2CCc1ccccc1 (stereo not shown) [compound 152]
IC50 (human CB1 receptor): 340 nM
IC50 (human CB2 receptor): 200 nM

CC(NC(=O)c1nn(-c2ccc(F)cc2)c2c1CCCC2CCc1ccccc1)C12CC3CC(CC(C3)C1)C2 (stereo not shown) [compound 153]
IC50 (human CB1 receptor): 1390 nM
IC50 (human CB2 receptor): 60 nM
